Measurements from US11466025B2, “Thienopyridine derivatives containing unsaturated aliphatic olefinic bond, preparation method and use thereof” (Tianjin Institute of Pharmaceutical Research Co., Ltd., priority 2017, dated 2022).
Read-outs that look alike come from different tables or passages of the source.

Experiments:
[1] = tested on: arteriovenous bypass thrombosis in rats; test: Test of effect of compounds on arteriovenous bypass thrombosis in rats; assay type: in vivo, SD rats; set-up: Dry weight of thrombus (%): unit not given here; conditions: rats; for Inhibition rate (%): dry weight of thrombus; for Dry weight of thrombus (%): loop opened 2.5 h after administration, 15 min
Experimental: Test of Effect of Compounds on Arteriovenous Bypass Thrombosis in Rats
Male SD rats were randomly divided into solvent control group, positive drug control group and test compound group. The solvent control group was administered a corresponding volume of the solvent. […] Rats were anesthetized with 4% chloral hydrate (0.32 g/kg), and fixed on the operating table at the supine position. The right common carotid artery and the left external jugular vein were separated, and was each inserted with a Teflon tube filled with normal saline solution containing heparin (50 U/mL), which were connected through another Teflon tube. A 6 cm long cotton thread was placed at the joints of the two tubes. After 2.5 h of administration, the arteriovenous loop was opened in each group and circulated for 15 min. The blood flow was interrupted, and the cotton thread wrapped with the thrombus was quickly removed and weighed. The weight of the cotton thread was subtracted to obtain the wet weight of the thrombus, and then it was baked in the oven to constant weight and weighed. The weight of the cotton thread was subtracted to obtain the dry weight of the thrombus.

[2] = 1 μM
Experimental: Plasma samples (double sample) containing 1 μM of the compounds of the present invention, clopidogrel hydrogen sulfate (LBGL), 2-oxo product (2-Oxo) were prepared from human blank plasma, and incubated at 37° C. 50 μL of the above incubated plasma samples were taken at different time points, and 100 μL of precipitant (acetonitrile:methanol=7:3) and 50 μL of internal standard were added. The mixture was vortexed for 1 min and centrifuged for 10 min. 100 μL of the supernatant was taken into an inner inserted tube, centrifuged for 5 min, and injected for LC-MS/MS analysis.
Preparation of blank control sample (PPT-0): 100 μL of frozen human blank plasma was taken, to which 195 μL of acetonitrile and 100 μL of internal standard were added, followed by 5 μL of the compound of the present invention, clopidogrel or 2-oxo product (20 μM). The mixture was vortexed for 1 min and centrifuged for 10 min. 100 μL of the supernatant was taken into an inner inserted tube, centrifuged for 5 min, and injected for LC-MS/MS analysis.

**Q.** For `C/C=C/C=C/C(=O)Oc1cc2c(s1)CCN([C@H](C(=O)OC)c1ccccc1Cl)C2` [Compound I-2, Methyl (S)-2-(2-chlorophenyl)-2-(2-((2E,4E)-2,4-hexadienoyloxy)-6,7-dihydrothieno[3,2-c]pyridin-5(4H)-yl)-acetate], which ED50 ([1]; Rattus norvegicus, po, dry weight of thrombus from arteriovenous bypass, intragastric, read-out: ED50) is on record?
**A.** 5.86 mg/kg

**Q.** What about the “Inhibition rate (%)” value ([1]; intragastric 1 mg/kg) of the same molecule?
**A.** 36.5%

**Q.** And the “Inhibition rate (%)” value ([1]; intragastric 3 mg/kg)?
**A.** 40.3%

**Q.** And the “Inhibition rate (%)” value ([1]; intragastric 10 mg/kg)?
**A.** 52.1%

**Q.** What about the “Inhibition rate (%)” value ([1]; intragastric 30 mg/kg) of the same molecule?
**A.** 68.6%

**Q.** And the “Dry weight of thrombus (%)” value ([1]; intragastric 1 mg/kg)?
**A.** 6.4 ± 3.6

**Q.** And the “Dry weight of thrombus (%)” value ([1]; intragastric 3 mg/kg)?
**A.** 6.1 ± 2.9

**Q.** What about the “Dry weight of thrombus (%)” value ([1]; intragastric 10 mg/kg) of the same molecule?
**A.** 4.9 ± 2.3

**Q.** And the “Dry weight of thrombus (%)” value ([1]; intragastric 30 mg/kg)?
**A.** 3.2 ± 1.5

**Q.** What about the “2-Oxo metabolite concentration in human plasma” value (“2-Oxo metabolite concentration” for short) ([2]; 0 min) of the same molecule?
**A.** 0.0192 µM

**Q.** What about the “2-Oxo metabolite in human plasma, %” value ([2]; 0 min) of the same molecule?
**A.** 1.74%

**Q.** What about the “Concentration of incubated compound in human plasma” value (“Concentration of incubated compound” below) ([2]; 0 min) of the same molecule?
**A.** 1110 nM

**Q.** What about the “Incubated compound in human plasma, %” value ([2]; 0 min) of the same molecule?
**A.** 100%

**Q.** And the “Generation of 2-oxo (2-Oxo) product in human plasma” value [2]?
**A.** rapidly generate 2-oxo products

**Q.** What about the “2-Oxo metabolite concentration” value ([2]; 5 min) of the same molecule?
**A.** 0.0246 µM

**Q.** What about the “2-Oxo metabolite in human plasma, %” value ([2]; 5 min) of the same molecule?
**A.** 2.23%

**Q.** And the “Concentration of incubated compound” value ([2]; 5 min)?
**A.** 1030 nM

**Q.** And the “Incubated compound in human plasma, %” value ([2]; 5 min)?
**A.** 93.5%

**Q.** What about the “2-Oxo metabolite concentration” value ([2]; 10 min) of the same molecule?
**A.** 0.0319 µM

**Q.** And the “2-Oxo metabolite in human plasma, %” value ([2]; 10 min)?
**A.** 2.89%

**Q.** And the “Concentration of incubated compound” value ([2]; 10 min)?
**A.** 1030 nM

**Q.** And the “Incubated compound in human plasma, %” value ([2]; 10 min)?
**A.** 92.8%

**Q.** What about the “2-Oxo metabolite concentration” value ([2]; 20 min) of the same molecule?
**A.** 0.0449 µM

**Q.** What about the “2-Oxo metabolite in human plasma, %” value ([2]; 20 min) of the same molecule?
**A.** 4.06%

**Q.** And the “Concentration of incubated compound” value ([2]; 20 min)?
**A.** 1070 nM

**Q.** And the “Incubated compound in human plasma, %” value ([2]; 20 min)?
**A.** 97.1%

**Q.** And the “2-Oxo metabolite concentration” value ([2]; 30 min)?
**A.** 0.0493 µM

**Q.** And the “2-Oxo metabolite in human plasma, %” value ([2]; 30 min)?
**A.** 4.46%

**Q.** What about the “Concentration of incubated compound” value ([2]; 30 min) of the same molecule?
**A.** 957 nM

**Q.** And the “Incubated compound in human plasma, %” value ([2]; 30 min)?
**A.** 86.6%

**Q.** And the “2-Oxo metabolite concentration” value ([2]; 45 min)?
**A.** 0.0522 µM

**Q.** What about the “2-Oxo metabolite in human plasma, %” value ([2]; 45 min) of the same molecule?
**A.** 4.72%

**Q.** What about the “Concentration of incubated compound” value ([2]; 45 min) of the same molecule?
**A.** 927 nM

**Q.** What about the “Incubated compound in human plasma, %” value ([2]; 45 min) of the same molecule?
**A.** 83.9%

**Q.** What about the “2-Oxo metabolite concentration” value ([2]; 60 min) of the same molecule?
**A.** 0.0521 µM

**Q.** And the “2-Oxo metabolite in human plasma, %” value ([2]; 60 min)?
**A.** 4.71%

**Q.** What about the “Concentration of incubated compound” value ([2]; 60 min) of the same molecule?
**A.** 849 nM

**Q.** What about the “Incubated compound in human plasma, %” value ([2]; 60 min) of the same molecule?
**A.** 76.8%

**Q.** And the “2-Oxo metabolite concentration” value ([2]; 90 min)?
**A.** 0.0481 µM

**Q.** What about the “2-Oxo metabolite in human plasma, %” value ([2]; 90 min) of the same molecule?
**A.** 4.35%

**Q.** What about the “Concentration of incubated compound” value ([2]; 90 min) of the same molecule?
**A.** 705 nM

**Q.** What about the “Incubated compound in human plasma, %” value ([2]; 90 min) of the same molecule?
**A.** 63.8%

**Q.** And the “2-Oxo metabolite concentration” value ([2]; 120 min)?
**A.** 0.0457 µM

**Q.** What about the “2-Oxo metabolite in human plasma, %” value ([2]; 120 min) of the same molecule?
**A.** 4.14%

**Q.** What about the “Concentration of incubated compound” value ([2]; 120 min) of the same molecule?
**A.** 695 nM

**Q.** And the “Incubated compound in human plasma, %” value ([2]; 120 min)?
**A.** 62.9%

**Q.** And the “2-Oxo metabolite concentration” value ([2]; 150 min)?
**A.** 0.0445 µM

**Q.** And the “2-Oxo metabolite in human plasma, %” value ([2]; 150 min)?
**A.** 4.03%

**Q.** And the “Concentration of incubated compound” value ([2]; 150 min)?
**A.** 516 nM

**Q.** And the “Incubated compound in human plasma, %” value ([2]; 150 min)?
**A.** 46.7%

**Q.** What about the “2-Oxo metabolite concentration” value ([2]; 180 min) of the same molecule?
**A.** 0.0388 µM

**Q.** What about the “2-Oxo metabolite in human plasma, %” value ([2]; 180 min) of the same molecule?
**A.** 3.51%

**Q.** What about the “Concentration of incubated compound” value ([2]; 180 min) of the same molecule?
**A.** 475 nM

**Q.** What about the “Incubated compound in human plasma, %” value ([2]; 180 min) of the same molecule?
**A.** 43.0%

**Q.** And the “2-Oxo metabolite concentration” value ([2]; 240 min)?
**A.** 0.0331 µM

**Q.** And the “2-Oxo metabolite in human plasma, %” value ([2]; 240 min)?
**A.** 3.00%

**Q.** What about the “Concentration of incubated compound” value ([2]; 240 min) of the same molecule?
**A.** 332 nM

**Q.** And the “Incubated compound in human plasma, %” value ([2]; 240 min)?
**A.** 30.0%

**Q.** What about the “2-Oxo metabolite concentration” value ([2]; 300 min) of the same molecule?
**A.** 0.0294 µM

**Q.** What about the “2-Oxo metabolite in human plasma, %” value ([2]; 300 min) of the same molecule?
**A.** 2.66%

**Q.** What about the “Concentration of incubated compound” value ([2]; 300 min) of the same molecule?
**A.** 231 nM

**Q.** What about the “Incubated compound in human plasma, %” value ([2]; 300 min) of the same molecule?
**A.** 20.9%

**Q.** What about the “2-Oxo metabolite concentration” value ([2]; 360 min) of the same molecule?
**A.** 0.0236 µM

**Q.** What about the “2-Oxo metabolite in human plasma, %” value ([2]; 360 min) of the same molecule?
**A.** 2.14%

**Q.** What about the “Concentration of incubated compound” value ([2]; 360 min) of the same molecule?
**A.** 164 nM

**Q.** What about the “Incubated compound in human plasma, %” value ([2]; 360 min) of the same molecule?
**A.** 14.8%
